{
  "source": "patent US9034793B2",
  "about": "“Use of ribose to enhance plant growth” (Bioenergy, Inc., priority 2002, dated 2015)",
  "key": {"cut flower": {"test_system": "cut flower", "details": "storage solution containing the compound; cited from earlier work"}, "bean seeds [1]": {"test_system": "bean seeds", "assay": "Root growth assessment (Example 3)", "assay_type": "in vivo", "details": "for Root appearance: 2 weeks, compared with water treated roots", "from_the_text": "Identical sized pots, containing the same consistency of soil media, were used in assessing root growth. Bean seeds of similar size were chosen. One seed was planted in each pot. The depth in the soil for each seed that was planted was the same. Paired pots (total of 3 pairs, 6 pots), each containing one bean seed, were used. One pair of pots received 2 teaspoons of water every other day (Group A). The second pair of pots received a low Ribose solution (1 teaspoon of D-ribose in 16 oz of water), each pot received 2 teaspoons of this low dose of Ribose every other day (Group B). The final pair of pots received a higher dose of Ribose (1 teaspoon of D-ribose in 4 oz of water), each pot received 2 teaspoons of this higher dose of Ribose every other day (Group C). In each pair of pots, roots were examined at week 1 and 2, by removing the roots of one pot only in each group at the designed test time point with soil emersion in a bucket of water. At week 2 all remaining pots had shoots emerging from the top soil. The roots were weighed and measured for length. […] This discrepancy expanded when the roots were analyzed at 2 weeks. […] The weight of the roots treated with high dose Ribose were appreciably less in weight than both the water and low dose Ribose treated groups."}, "[2]": {"test_system": "plants grown from seed (5 seeds per plot)", "assay": "Plant feeding with ribose for growth (Table 1)", "assay_type": "in vivo, Hosta (H. plantaginea grandiflora)", "details": "for Unsprouted: of 5 seeds per plot", "from_the_text": "(§1) Hosta (H. plantaginea grandiflora) plants were transplanted. The protocol was designed such that half of the plants were supplied with water alone and half of the plants received a ribose based solution, in which powdered D-ribose was mixed in water. All plants were transplanted at the same level in the soil and in like soil. All plants were watered at the same times of day, mid-morning and at dusk. Each plant received the same amount of water/watering (½ liter water at each watering). Results of plant growth data following transplantation are graphically depicted in FIGS. 1 and 2. [table]"}, "beans (B)": {"test_system": "beans (B)", "assay": "Transplants in garden, growth and hardening after transplantation: beans", "assay_type": "in vivo, bean", "from_the_text": "as §1"}, "kohlrabi (K)": {"test_system": "kohlrabi (K)", "assay": "Transplants in garden, growth and hardening after transplantation: kohlrabi", "assay_type": "in vivo", "from_the_text": "as §1"}, "bean seeds [3]": {"test_system": "bean seeds", "assay": "Fertilization with ribose combined with nitrogen, phosphorus, potassium", "assay_type": "in vivo", "details": "ribose combined with the fertilizers nitrogen, phosphorus, and potassium", "experimental": "D-ribose plus nitrogen, nitrogen alone, or placebo was administered to bean seeds and measurements of growth and yield was made as in Example 2. D-ribose plus phosphorus, phosphorus alone, or placebo was administered to bean seeds and measurements of growth and yield was made as in Example 2. D-ribose plus potassium, potassium alone, or placebo was administered to bean seeds and measurements of growth and yield was made as in Example 2. D-ribose plus the combination, the combination alone, or placebo was administered to bean seeds and measurements of growth and yield was made as in Example 2."}, "[4]": {"details": "Week 1 following seed implantation"}, "[5]": {"details": "Week 2, plants cut off above the soil, just the roots weighed"}, "[6]": {"details": "29-Sep, first measure after transplant"}},
  "note": "Where “and” joins values, the source holds several entries; their conditions need not be identical. Equal values may be shown once.",
  "data": [
    {"smiles": "CCSC[C@@H](O)[C@@H](O)[C@@H](O)C=O", "note": "[5-deoxy-5-ethylthio-D-ribose]", "values": [
      {"measurement": "Bloom life of a cut flower", "setting": "cut flower", "value": "extend bloom life"}
    ]},
    {"smiles": "O=C[C@H](O)[C@H](O)[C@H](O)CO", "note": "[High Ribose, D-ribose]", "values": [
      {"measurement": "Root appearance", "setting": "bean seeds [1]; listed as high dose Ribose", "value": "thick"},
      {"measurement": "Root Length", "setting": "bean seeds [1]; [4]", "value": 13.8, "unit": "cm"},
      {"measurement": "Root Weight", "setting": "bean seeds [1]; [4]", "value": 1.46, "unit": "gm"},
      {"measurement": "Root Length", "setting": "bean seeds [1]; Week 2", "value": 14.7, "unit": "cm"},
      {"measurement": "Root Weight", "setting": "bean seeds [1]; [5]", "value": 0.26, "unit": "gm"},
      {"measurement": "Root Weight", "setting": "bean seeds [1]; Week 2, plants cut off above the soil, just the roots weighed, listed as high dose Ribose", "value": "less in weight than both the low dose Ribose and water groups"}
    ]},
    {"smiles": "O=C[C@H](O)[C@H](O)[C@H](O)CO", "note": "[Low Ribose, D-ribose]", "values": [
      {"measurement": "Root appearance", "setting": "bean seeds [1]; listed as low dose Ribose", "value": "thicker, shorter roots"},
      {"measurement": "Root Length", "setting": "bean seeds [1]; [4]", "value": 13.4, "unit": "cm"},
      {"measurement": "Root Weight", "setting": "bean seeds [1]; [4]", "value": 1.55, "unit": "gm"},
      {"measurement": "Root Length", "setting": "bean seeds [1]; Week 2", "value": 16.0, "unit": "cm"},
      {"measurement": "Root Weight", "setting": "bean seeds [1]; [5]", "value": 1.01, "unit": "gm"}
    ]},
    {"smiles": "O=C[C@H](O)[C@H](O)[C@H](O)CO", "note": "[R1, ribose]", "values": [
      {"measurement": "Plant measures, Mean", "setting": "[2]; 23 June, 5 seeds per plot", "value": 1.65, "unit": "inches"},
      {"measurement": "Unsprouted", "setting": "[2]; 23 June", "value": 2},
      {"measurement": "#Plants/blossom", "setting": "[2]; Measured 8 July", "value": 1},
      {"measurement": "Plant measures, Mean", "setting": "[2]; Measured 8 July", "value": 2.9, "unit": "inches"},
      {"measurement": "Bean measure to the Y", "setting": "beans (B); 1-Nov, after transplant", "value": "17 cm and 12 cm"},
      {"measurement": "Bean overall height", "setting": "beans (B); 1-Nov, after transplant", "value": "33.5 cm and 18 cm"},
      {"measurement": "Bean measure to the Y", "setting": "beans (B); 9-Sep, before moving", "value": "9 cm and 10 cm and 6 cm"},
      {"measurement": "Bean measure to the Y", "setting": "beans (B); 19-Oct, after transplant", "value": "16 cm and 10 cm"},
      {"measurement": "Bean measure to the Y", "setting": "beans (B); [6]", "value": "14 cm and 9.5 cm"},
      {"measurement": "Kohlrabi plant measure", "setting": "kohlrabi (K); 1-Nov, after transplant", "value": "11 and 15.5 and 9.8 and 18"}
    ]},
    {"smiles": "O=C[C@H](O)[C@H](O)[C@H](O)CO", "note": "[R2, ribose]", "values": [
      {"measurement": "Plant measures, Mean", "setting": "[2]; 23 June, 5 seeds per plot", "value": 3.3, "unit": "inches"},
      {"measurement": "Unsprouted", "setting": "[2]; 23 June", "value": 1},
      {"measurement": "#Plants/blossom", "setting": "[2]; Measured 8 July", "value": 3},
      {"measurement": "Plant measures, Mean", "setting": "[2]; Measured 8 July", "value": 5.8, "unit": "inches"}
    ]},
    {"smiles": "O=C[C@H](O)[C@H](O)[C@H](O)CO", "note": "[R3, ribose]", "values": [
      {"measurement": "Plant measures, Mean", "setting": "[2]; 23 June, 5 seeds per plot", "value": 6.05, "unit": "inches"},
      {"measurement": "Unsprouted", "setting": "[2]; 23 June", "value": 0},
      {"measurement": "#Plants/blossom", "setting": "[2]; Measured 8 July", "value": 4},
      {"measurement": "Plant measures, Mean", "setting": "[2]; Measured 8 July", "value": 9.3, "unit": "inches"}
    ]},
    {"smiles": "O=C[C@H](O)[C@H](O)[C@H](O)CO", "note": "[R4, ribose]", "values": [
      {"measurement": "Plant measures, Mean", "setting": "[2]; 23 June, 5 seeds per plot", "value": 8.45, "unit": "inches"},
      {"measurement": "Unsprouted", "setting": "[2]; 23 June", "value": 0},
      {"measurement": "Plant measures, measured to the Y, single plants", "setting": "[2]; 23 June, planted 4 June, 2 tablespoons every other day (3x per week)", "value": "6.5 inches and 8 inches and 8.25 inches and 9.5 inches and 10 inches"},
      {"measurement": "#Plants/blossom", "setting": "[2]; Measured 8 July", "value": 5},
      {"measurement": "Plant measures, Mean", "setting": "[2]; Measured 8 July", "value": 11.1, "unit": "inches"},
      {"measurement": "Plant measures, measured to the Y, single plants", "setting": "[2]; Measured 8 July", "value": "8.75 inches and 10 inches and 10.5 inches and 11.75 inches and 12 inches"},
      {"measurement": "Bean measure to the Y", "setting": "beans (B); 1-Nov, after transplant", "value": "10 cm and 13 cm"},
      {"measurement": "Bean overall height", "setting": "beans (B); 1-Nov, after transplant", "value": "27 cm and 30 cm"},
      {"measurement": "Bean measure to the Y", "setting": "beans (B); 9-Sep, before moving", "value": "6 cm and 8 cm"},
      {"measurement": "Bean overall height", "setting": "beans (B); 9-Sep, before moving", "value": "21 cm and 22 cm"},
      {"measurement": "Bean measure to the Y", "setting": "beans (B); 19-Oct, after transplant", "value": "8.75 cm and 12 cm"},
      {"measurement": "Bean overall height", "setting": "beans (B); 19-Oct, after transplant", "value": "26 cm and 28 cm"},
      {"measurement": "Bean measure to the Y", "setting": "beans (B); [6]", "value": "7.5 cm and 10.5 cm"},
      {"measurement": "Bean overall height", "setting": "beans (B); [6]", "value": "24 cm and 26 cm"},
      {"measurement": "Kohlrabi plant measure", "setting": "kohlrabi (K); 1-Nov, after transplant", "value": "16.5 and 19 and 22 and 21 and 15"},
      {"measurement": "Kohlrabi plant measure", "setting": "kohlrabi (K); 9-Sep, before moving", "value": "12 and 13 and 17 and 11"},
      {"measurement": "Kohlrabi plant measure", "setting": "kohlrabi (K); 19-Oct, after transplant", "value": "15 and 18 and 19.5 and 20 and 14.5"},
      {"measurement": "Kohlrabi plant measure", "setting": "kohlrabi (K); [6]", "value": "14 and 16 and 19 and 19.5 and 13"}
    ]},
    {"smiles": "O=C[C@H](O)[C@H](O)[C@H](O)CO", "note": "[Ribose, D-ribose]", "values": [
      {"measurement": "Root Length", "setting": "bean seeds [1]; [4]", "value": "slightly shorter in length"},
      {"measurement": "Root Weight", "setting": "bean seeds [1]; [4]", "value": "heavier"},
      {"measurement": "Improvement over solutions of ribose alone", "setting": "bean seeds [3]", "value": "slight incremental improvements"}
    ]}
  ]
}
